The results in this text go back to patent US20250361230A1, “LATS Inhibitors and Uses Thereof” (The USA, as Represented by the Secretary, Dept. of Heath …, priority 2022, published 2025).

In one experiment the target is AKT (Homo sapiens, UniProt P31749). Nature of the experiment: RBC HotSpot kinase assay (33P-ATP, P81 filter-binding), AKT. Format: biochemical. Conditions: biochemical kinase inhibition; read-out: AKT IC50. In a few lines:
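Compounds were run as single 10-point titrations to give IC50 values in nM. Each kinase was mixed with substrate and cofactors in 20 mM Hepes pH 7.5 reaction buffer with 1% DMSO, then exposed to compound for 20 min. 33P-ATP was added for a 2 h room-temperature reaction, with activity measured by P81 filter binding.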

Experiment [1] concerns the target T1, AKT Kinase-NanoLuc fusion in HEK-293 cells (Homo sapiens, UniProt P31749).
T1 construct: host or cells: HEK-293
The experiment can be described thus: NanoBRET target engagement assay in transfected HEK-293 cells, AKT. Particulars: cellular; read-out: AKT (Cellular) IC50. Format: cell-based. The method in brief:
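HEK-293 cells transiently transfected with kinase-NanoLuc fusion plasmid for 22-24 h, then incubated with compound and NanoBRET tracer for 1 hour at 37° C. After substrate plus extracellular NanoLuc inhibitor addition, 460 and 600 nm emissions read; no-tracer-corrected BRET ratio used to derive IC50 values.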

Sequence of AKT (P31749 whole entry): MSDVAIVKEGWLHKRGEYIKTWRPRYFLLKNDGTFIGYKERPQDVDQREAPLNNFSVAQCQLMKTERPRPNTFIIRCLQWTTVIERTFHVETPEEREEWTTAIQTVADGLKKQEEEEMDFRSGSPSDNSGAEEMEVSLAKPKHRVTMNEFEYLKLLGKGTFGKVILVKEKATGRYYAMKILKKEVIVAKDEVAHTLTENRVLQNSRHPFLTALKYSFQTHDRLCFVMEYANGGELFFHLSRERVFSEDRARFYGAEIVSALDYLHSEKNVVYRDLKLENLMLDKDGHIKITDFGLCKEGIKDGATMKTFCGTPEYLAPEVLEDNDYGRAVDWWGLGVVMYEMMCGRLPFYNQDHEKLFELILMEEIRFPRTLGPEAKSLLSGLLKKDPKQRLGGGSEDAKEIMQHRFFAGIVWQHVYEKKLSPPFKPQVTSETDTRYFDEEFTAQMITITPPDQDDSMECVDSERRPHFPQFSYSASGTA
T1 sequence (P31749 whole entry, the tested form may be a part): as the sequence (P31749 whole entry) above

In general, IC50 refers to the midpoint of a concentration-inhibition curve. On to `Cc1cc(-c2ccnc3[nH]cc(C#N)c23)ccc1[C@@]1(O)[C@H](C)CN(C2CCS(=O)(=O)CC2)C[C@@H]1C` [Compound 2003, 4-(4-((3S,4s,5R)-1-(1,1-dioxidotetrahydro-2H-thiopyran-4-yl)-4-hydroxy-3,5-dimethylpiperidin-4-yl)-3-methylphenyl)-1H-pyrrolo[2,3-b]pyridine-3-carbonitrile], for which the 50% inhibitory concentration (IC50) is 0.0121 µM on AKT and 28.5 µM in experiment [1].
